In patent US7056903B2, “Carboxylic acid derivatives as IP antagonists” (Syntex (U.S.A.) LLC, priority 2000, dated 2006) one finds melting point data, which are given here for one compound.

Take `O=C(NC(Cc1ccccc1)C(=O)O)OCc1ccc(CSc2ccccc2)cc1` (stereo not shown) [Compound 183, 3-phenyl-2-(4-phenylsulfanylmethyl-benzyloxycarbonylamino)-propionic acid]: the melting point (in general, the temperature of the solid-liquid transition) was in the range of 113.3 to 114.1 °C.
